This passage reports IC50 results from ChEMBL document CHEMBL1151037, “Synthesis of a chemiluminescent probe useful for the purification of steroid 5-reductase” (Bioorg Med Chem Lett, 1996).

This assay addresses T1, 3-oxo-5-alpha-steroid 4-dehydrogenase 1 (Rattus norvegicus, UniProt P24008).
T1 sequence (P24008 whole entry): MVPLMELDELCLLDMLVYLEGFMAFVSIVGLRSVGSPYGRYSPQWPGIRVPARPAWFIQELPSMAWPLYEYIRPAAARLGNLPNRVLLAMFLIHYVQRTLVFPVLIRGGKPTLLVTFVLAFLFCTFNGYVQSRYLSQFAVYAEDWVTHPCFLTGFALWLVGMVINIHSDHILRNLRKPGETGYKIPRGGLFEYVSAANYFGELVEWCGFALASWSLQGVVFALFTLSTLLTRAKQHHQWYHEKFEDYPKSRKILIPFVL
Nature of the assay: Compound was tested for its inhibitory potency against rat Steroid 5-alpha-reductase type 1 expressed in transformed yeast Saccharomyces cerevisiae.

With `CC(C)(C)NC(=O)[C@H]1CC[C@H]2[C@@H]3CC[C@H]4NC(=O)C=C[C@]4(C)[C@H]3CC[C@]12C` [FINASTERIDE], the IC50 worked out at 40 µM.

The compound `CCN(CCCCNC(=O)[C@H]1CCC2C3CCC4NC(=O)C=C[C@]4(C)C3CC[C@@]21C)c1ccc2c(=O)[nH][nH]c(=O)c2c1` (some centres not stated) returned an IC50 of 0.5 µM.
